Data reported in US8030354B2, “Substituted biphenyl GPR40 modulators” (Amgen Inc., priority 2007, dated 2011).

Assays:
GPR40 [1] = target: T1, GPR40 (Homo sapiens, UniProt O14842); assay: Cell-based aequorin assay (CHO cells stably expressing GPR40 and aequorin); parameters: expressed in transfected cells; host or cells: CHO cells stably transfected with GPR40 and aequorin; details: activation of human GPR40, CHO cells, 0.01% HSA
Summary of the method: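 CHO cells stably co-expressing GPR40 and aequorin, loaded with coelenterazine (1 ug/mL, 2 h, room temperature) in H/HBSS with 20 mM Hepes and 0.01% fatty acid-free HSA. Serially diluted compounds added; luminescence recorded over 20 s. EC50 from dose-response of maximum relative light units.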

GPR40 [2] = target: T1, GPR40; assay: Inositol phosphate accumulation assay (A9_GPR40 cells); format: cell-based; parameters: expressed in transfected cells; host or cells: CHO cells stably transfected with GPR40 and aequorin; details: inositol phosphate assay, A9_GPR40 cells, 1 hour; read-out: IP3 EC50
Summary of the method: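 [^3H] inositol phosphate accumulation was measured by SPA after 1 h compound exposure at 37° C in HBSS/10 mM LiCl containing HSA, ending with a 20 mM formic acid quench. The GPR40-transfected A9 cells had first been labelled overnight (16 h) with 1 μCi/mL ^3H-inositol.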

T1 sequence (O14842 whole entry): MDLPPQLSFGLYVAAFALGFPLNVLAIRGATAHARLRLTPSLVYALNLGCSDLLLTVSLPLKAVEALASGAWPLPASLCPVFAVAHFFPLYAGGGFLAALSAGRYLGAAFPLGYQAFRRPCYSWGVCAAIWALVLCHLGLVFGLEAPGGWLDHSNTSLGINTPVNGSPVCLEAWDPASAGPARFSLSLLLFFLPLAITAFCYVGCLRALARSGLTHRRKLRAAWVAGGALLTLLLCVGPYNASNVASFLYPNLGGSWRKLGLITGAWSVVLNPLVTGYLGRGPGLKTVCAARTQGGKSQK

| EC50 (GPR40 [1]) | EC50 (GPR40 [2]) | Compound |
| --- | --- | --- |
| 10 to 100 nM | < 10 nM | COc1ccc(F)c(-c2ccc(COc3cccc(C(CC(=O)O)CC4CC4)c3F)cc2C(F)C(C)(C)C)c1 (single isomer, unassigned) [Example 84.7] |
| 100 to 1000 nM | 10 to 100 nM | COC(c1cc(COc2cccc(C(CC(=O)O)C3CC3)c2)ccc1-c1ccccc1F)C(C)(C)C (single isomer, unassigned) [Example 66.33] |
| 10 to 100 nM | < 10 nM | COc1ccc(F)c(-c2cc(F)c(COc3cccc([C@@H](CC(=O)O)C4CC4)c3F)cc2[C@H]2CCCC2(C)C)c1 (single isomer, unassigned) [Example 83.2] |
| 100 to 1000 nM | 10 to 100 nM | COc1ccc(F)c(-c2ccc(COc3cccc([C@@H](CC(=O)O)C4CC4)c3)cc2C2=CCCC2)c1 (single isomer, unassigned) [Example 66.68, (S)-3-[3-(2-Cyclopent-1-enyl-2′-fluoro-5′-methoxy-biphenyl-4-ylmethoxy)-phenyl]-3-cyclopropyl-propionic acid or (R)-3-[3-(2-cyclopent-1-enyl-2′-fluoro-5′-methoxy-biphenyl-4-ylmethoxy)-phenyl]-3-cyclopropyl-propionic acid] |
| 100 to 1000 nM | 10 to 100 nM | COc1ccc(F)c(-c2ccc(COc3cccc(C(CC(=O)O)C4CCC4)c3)cc2C(C)(C)C)c1 (single isomer, unassigned) [Example 70.3, (3S)-3-Cyclobutyl-3-(3-(((2-(1,1-dimethylethyl)-2′-fluoro-5′-(methyloxy)-1,1′-biphenyl-4-yl)methyl)oxy)phenyl)propanoic acid or (3R)-3-cyclobutyl-3-(3-(((2-(1,1-dimethylethyl)-2′-fluoro-5′-(methyloxy)-1,1′-biphenyl-4-yl)methyl)oxy)phenyl)propanoic acid] |
| 100 to 1000 nM | 10 to 100 nM | COc1cccc(-c2ccc(COc3cccc(C(CC(=O)O)CC4CC4)c3)cc2C2CCCCCC2)c1 (single isomer, unassigned) [Example 69.11, (3R)-3-(3-(((2-Cycloheptyl-3′-(methyloxy)-1,1′-biphenyl-4-yl)methyl)oxy)phenyl)-4-cyclopropylbutanoic acid or (3S)-3-(3-(((2-cycloheptyl-3′-(methyloxy)-1,1′-biphenyl-4-yl)methyl)oxy)phenyl)-4-cyclopropylbutanoic acid] |
| 100 to 1000 nM | 10 to 100 nM | COc1ccc(F)c(-c2ccc(COc3cccc([C@@H](CC(=O)O)C4CC4)c3F)cc2[C@H](OC)C(C)(C)OC)c1 (single isomer, unassigned) [Example 83.26] |
| 100 to 1000 nM | 10 to 100 nM | COc1ccc(F)c(-c2ccc(COc3cccc([C@@H](CC(=O)O)C4CC4)c3)cc2CN2[C@H](C)CCC[C@H]2C)c1 (single isomer, unassigned) [Example 66.69] |
| 10 to 100 nM | < 10 nM | COc1cc(-c2ccc(COc3cccc([C@@H](CC(=O)O)C4CC4)c3F)cc2[C@H]2CCCC2(C)C)c(F)cn1 (single isomer, unassigned) [Example 83.4] |
| 100 to 1000 nM | < 10 nM | COc1ccc(F)c(-c2cc(F)c(COc3cc(F)cc(C(CC(=O)O)CC4CC4)c3)cc2C2CCCC2(C)C)c1 (single isomer, unassigned) [Example 89.3] |
| 100 to 1000 nM | 100 to 1000 nM | COc1ccc(F)c(-c2ccc(COc3cccc(C(C)CC(=O)O)c3)cc2C2=CCCC2)c1 (single isomer, unassigned) [Example 64.19, (3R)-3-(3-(((2-(1-Cyclopenten-1-yl)-2′-fluoro-5′-(methyloxy)-1,1′-biphenyl-4-yl)methyl)oxy)phenyl)butanoic acid or (3S)-3-(3-(((2-(1-cyclopenten-1-yl)-2′-fluoro-5′-(methyloxy)-1,1′-biphenyl-4-yl)methyl)oxy)phenyl)butanoic acid] |
| 100 to 1000 nM | 10 to 100 nM | CC1(C)CCC[C@@H]1c1cc(COc2cccc([C@@H](CC(=O)O)C3CC3)c2)ccc1-c1cccc(OC(F)F)c1 (single isomer, unassigned) [Example 66.11] |
| 100 to 1000 nM | < 10 nM | COc1ccc(F)c(-c2cc(F)c(COc3cccc(C(CC(=O)O)CC4CC4)c3)cc2C2CCCC2(C)C)c1 (single isomer, unassigned) [Example 69.34] |
| 100 to 1000 nM | 10 to 100 nM | COc1ccc(F)c(-c2ccc(COc3cccc([C@@H](CC(=O)O)CC4CC4)c3)cc2C2CCCC2C)c1 (single isomer, unassigned) [Example 69.33, (3R)-4-Cyclopropyl-3-(3-(((2′-fluoro-2-(2-methylcyclopentyl)-5′-(methyloxy)-1,1′-biphenyl-4-yl)methyl)oxy)phenyl)butanoic acid or (3S)-4-cyclopropyl-3-(3-(((2′-fluoro-2-(2-methylcyclopentyl)-5′-(methyloxy)-1,1′-biphenyl-4-yl)methyl)oxy)phenyl)butanoic acid] |
| 100 to 1000 nM | 10 to 100 nM | COCCO[C@H](c1cc(COc2cccc([C@@H](CC(=O)O)C3CC3)c2F)ccc1-c1ccccc1F)C(C)(C)C (single isomer, unassigned) [Example 83.11] |
| 10 to 100 nM | < 10 nM | CCC(CC(=O)O)c1cccc(OCc2ccc(-c3cc(OC)ccc3F)c(C3CCCCC3(C)C)c2)c1 (single isomer, unassigned) [Example 78.11] |
| 100 to 1000 nM | 10 to 100 nM | CCC(CC(=O)O)c1cccc(OCc2ccc(-c3cc(OC)ccc3F)c(C3=CCCC3(C)C)c2)c1F (single isomer, unassigned) [Example 77.1, (3R)-3-(3-(((2-(5,5-Dimethyl-1-cyclopenten-1-yl)-2′-fluoro-5′-(methyloxy)-1,1′-biphenyl-4-yl)methyl)oxy)-2-fluorophenyl)pentanoic acid or (3S)-3-(3-(((2-(5,5-dimethyl-1-cyclopenten-1-yl)-2′-fluoro-5′-(methyloxy)-1,1′-biphenyl-4-yl)methyl)oxy)-2-fluorophenyl)pentanoic acid] |
| 100 to 1000 nM | 10 to 100 nM | CCC[C@H](CC(=O)O)c1cccc(OCc2ccc(-c3cc(OC)ccc3F)c(C3CCCC3(C)C)c2)c1 (single isomer, unassigned) [Example 67.11, (3R)-3-(3-(((2-(2,2-Dimethylcyclopentyl)-2′-fluoro-5′-(methyloxy)-1,1′-biphenyl-4-yl)methyl)oxy)phenyl)hexanoic acid or (3S)-3-(3-(((2-(2,2-dimethylcyclopentyl)-2′-fluoro-5′-(methyloxy)-1,1′-biphenyl-4-yl)methyl)oxy)phenyl)hexanoic acid] |
| 100 to 1000 nM | < 10 nM | COc1ccc(F)c(-c2cc(F)c(COc3cccc(C(CC(=O)O)CC4CC4)c3)cc2C2=CCCC2(C)C)c1 (single isomer, unassigned) [Example 69.30, (3R)-4-cyclopropyl-3-(3-(((2-(5,5-dimethyl-1-cyclopenten-1-yl)-2′,5-difluoro-5′-(methyloxy)-1,1′-biphenyl-4-yl)methyl)oxy)phenyl)butanoic acid or (3S)-4-cyclopropyl-3-(3-(((2-(5,5-dimethyl-1-cyclopenten-1-yl)-2′,5-difluoro-5′-(methyloxy)-1,1′-biphenyl-4-yl)methyl)oxy)phenyl)butanoic acid] |
| 100 to 1000 nM | 1000 to 10000 nM | COc1ccc(F)c(-c2ccc(COc3cc(CCC(=O)O)ccn3)cc2C(C)(C)C)c1 [Example 72, 3-(2-(((2-(1,1-Dimethylethyl)-2′-fluoro-5′-(methyloxy)-1,1′-biphenyl-4-yl)methyl)oxy)-4-pyridinyl)propanoic acid] |
| 100 to 1000 nM | < 10 nM | COc1ccc(F)c(-c2ccc(COc3cccc([C@@H](CC(=O)O)C4CC4)c3)cc2[C@@H](OC)C(C)(C)C)c1 (single isomer, unassigned) [Example 66.13] |
| 100 to 1000 nM | 10 to 100 nM | CCOc1ccc(F)c(-c2ccc(COc3cccc(C(CC(=O)O)C4CC4)c3)cc2C2CCCC2(C)C)c1 (single isomer, unassigned) [Example 66.26] |
| 1000 to 10000 nM | 1000 to 10000 nM | COc1ccc(F)c(-c2ccc(COc3cccc([C@@H](CC(=O)O)C4CC4)c3)cc2COC(C)(C)C)c1 (single isomer, unassigned) [Example 66.63, (3S)-3-Cyclopropyl-3-(3-(((2-(((1,1-dimethylethyl)oxy)methyl)-2′-fluoro-5′-(methyloxy)-1,1′-biphenyl-4-yl)methyl)oxy)phenyl)propanoic acid or (3R)-3-cyclopropyl-3-(3-(((2-(((1,1-dimethylethyl)oxy)methyl)-2′-fluoro-5′-(methyloxy)-1,1′-biphenyl-4-yl)methyl)oxy)phenyl)propanoic acid] |
| 100 to 1000 nM | 100 to 1000 nM | CC[C@H](CC(=O)O)c1ccc(C)c(OCc2ccc(-c3cc(OC)ccc3F)c(C(C)(C)C)c2)c1 (single isomer, unassigned) [Example 87] |

| Compound | EC50 (GPR40 [1]) | EC50 (GPR40 [2]) |
| --- | --- | --- |
| COc1ccc(F)c(-c2c(F)cc(COc3cccc([C@@H](CC(=O)O)C4CC4)c3F)cc2[C@@H]2CCCC2(C)C)c1 (single isomer, unassigned) [Example 83.24] | 100 to 1000 nM | 10 to 100 nM |
| COc1ccc(F)c(-c2ccc(COc3cccc([C@@H](CC(=O)O)C4CC4)c3)cc2[C@H]2OCCCC2(C)C)c1 (single isomer, unassigned) [Example 66.54] | 100 to 1000 nM | 10 to 100 nM |
